Test results reported in PMC4321988, “Engineering of Helicobacter pylori L-Asparaginase: Characterization of Two Functionally Distinct Groups of Mutants” (PLoS ONE, 2015).
Where two headings read alike, the source gives them in different places.

Tests used:
[1] = biological target: T1, HpASNase (Helicobacter pylori CCUG 17874 type II L-asparaginase) (Helicobacter pylori, UniProt O25424); test: glutamate dehydrogenase-coupled NADH assay, […] nm; format: biochemical; conditions: 50 mM HEPES pH 7.5, 37°C
T1 construct: gene ansA; recombinant, E. coli BL21(DE3) pLysS, plasmid pDC1 (pET101 D-TOPO derivative), His-tag kept (given as N-terminal), 37 kDa band, tetramer
T1 sequence (O25424 whole entry): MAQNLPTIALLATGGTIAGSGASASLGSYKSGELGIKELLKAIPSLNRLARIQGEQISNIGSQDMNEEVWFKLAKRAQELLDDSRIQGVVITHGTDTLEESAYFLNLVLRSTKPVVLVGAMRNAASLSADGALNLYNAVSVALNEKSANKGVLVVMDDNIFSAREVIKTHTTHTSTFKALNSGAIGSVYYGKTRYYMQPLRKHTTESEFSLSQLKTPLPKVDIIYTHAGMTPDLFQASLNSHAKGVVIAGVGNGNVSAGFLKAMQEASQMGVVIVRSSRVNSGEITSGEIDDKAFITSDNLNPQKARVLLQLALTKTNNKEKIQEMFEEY

[2] = biological target: Helicobacter pylori CCUG 17874 type II L-asparaginase T16D mutant (Helicobacter pylori CCUG 17874); test: SEC; analytical gel filtration of the purified mutant; data not shown; conditions not given
[3] = biological target: Helicobacter pylori CCUG 17874 type II L-asparaginase T95E mutant (Helicobacter pylori CCUG 17874); test: as above

NC(=O)C[C@H](N)C(=O)O [L-asparagine]
Km ([1]; read-out: L-asparagine / S0.5, nH 1.0): 0.29 ± 0.03 mM

NC(=O)CC[C@H](N)C(=O)O [L-glutamine]
Km ([1]; read-out: L-glutamine / S0.5, nH 2.0): 46.4 ± 4.02 mM

Helicobacter pylori CCUG 17874 type II L-asparaginase T16D mutant (enzyme)
stoichiometry N [2]: 4

Helicobacter pylori CCUG 17874 type II L-asparaginase T95E mutant (enzyme)
stoichiometry N [3]: 4
